{"source": "patent US20090076130A1", "about": "“COMPOUNDS FOR THE INHIBITION OF HISTONE DEACETYLASE” (NATUREWISE BIOTECH & MEDICALS CORPORATION, priority 2007, published 2009)", "key": {"SMN2 protein": {"tested_on": "SMN2 protein", "conditions": "fibroblast cells derived from SMA patients, 64 hours of treatment; cited from earlier work"}, "[1]": {"tested_on": "human breast MCF-7 cancer cells", "assay": "Growth and morphology of breast cancer MCF-7 cells", "format": "cell-based", "method": "The breast cancer MCF-7 cells, were cultured in Dulbecco's modified Eagle's medium (DMEM; Gibco) supplemented with penicillin G, streptomycin sulphate, 0.5 mM of L-glutamine and 10% fetal bovine serum (FBS; Gibco) at 37° C., 5% CO2 and 95% relative humidity. The cells were seeded at a density of 3×10^5 per well of 6-well plates. After 24 hours, the cells were treated with different concentrations of compound NBM-HD-1 and 4 mM sodium butyrate being used as the positive control. The cells were observed after 48 hours and counted after 96 hours. […] In FIG. 8(A), after the cells were incubated with 2.5 μg/mL (FIG. 8(A)-b), 5 μg/mL (FIG. 8(A)-c) and 10 μg/mL (FIG. 8(A)-d) of NBM-HD-1 for 48 hours, the density of MCF-7 cells reduced dramatically in comparison with that of the control group (FIG. 8(A)-a). The morphology of the MCF-7 cells in the experimental group changed in comparison with that in the control group. […] The results of the cell counting (FIG. 8(B)) indicate that, similar to sodium butyrate, NBM-HD-1 inhibits cell growth.\nMCF-7 cancer cells were seeded at a density of 3×10^5 per well in 6-well plates. After 24 hours, the cells were treated with different concentrations of compound NBM-HD-2 and 4 mM sodium butyrate being used as the positive control. The cells were observed and counted after 72 hours. […] In FIG. 13(A), after the cells were incubated with 2.5 μg/mL (FIG. 13(A)-c), 5 μg/mL (FIG. 13(A)-d), 7.5 μg/mL (FIG. 13(A)-e) and 10 μg/mL (FIG. 13(A)-f) of NBM-HD-2 for 72 hours, the density of MCF-7 cells reduced dramatically in comparison with that of the control group (FIG. 13(A)-a). The morphology of the MCF-7 cells in the experimental group changed in comparison with that in the control group.\nMCF-7 cancer cells were seeded at a density of 3×10^5 per well of 6-well plates. After 24 hours, the cells were treated with different concentrations of compound NBM-HD-3 and 4 mM sodium butyrate, which was being used as the positive control. The cells were observed and counted after 72 hours. […] In FIG. 14(A), after the cells were incubated with 2.5 μg/mL (FIG. 14(A)-c), 5 μg/mL (FIG. 14(A)-d), 7.5 μg/mL (FIG. 14(A)-e) and 10 μg/mL (FIG. 14(A)-f) of NBM-HD-3 for 72 hours, the density of MCF-7 cells reduced dramatically in comparison with that of the control group (FIG. 14(A)-a). The morphology of the MCF-7 cells in the experimental group changed in comparison with that in the control group. […] The results of the cell counting (FIG. 14(B)) indicate that, similar to sodium butyrate, NBM-HD-3 inhibits cell growth."}, "cyclin D1": {"tested_on": "cyclin D1", "conditions": "MCF-7 breast cancer cells; cited from earlier work"}, "[2]": {"tested_on": "transgenic mouse model of spinal and bulbar muscular atrophy", "conditions": "cited from earlier work"}, "acetylated histone H4": {"tested_on": "acetylated histone H4", "assay": "Western blotting of hyperacetylated histone H4 in C6 glioma cells", "format": "cell-based, rat", "method": "Accumulation of hyperacetylated histone H4 was analyzed in the cell lysates by using Western Blotting and the antibody directed against acetylated histone H4 (Upstate). The C6 glioma cells were seeded at a density of 1×10^6 per 10 cm culture dish. After 24 hours, the cells were treated with 10 μg/mL of NBM-HD-1 or 4 mM sodium butyrate for several hours. The whole-cell lysates were prepared by using denaturing SDS sample buffer and then separated on 15% SDS-polyacrylamide gels. […] The amount of acetylated histones was hardly detectable in untreated C6 glioma cells. The amount of acetylated histone H4 of the cells treated with 4 mM sodium butyrate for 2 hours increased. Sodium butyrate was then removed from the culture medium. After 6 hours, the amount of acetylated histone H4 decreased. The accumulation of acetylated histone H4 increased in the cells treated with NBM-HD-1 for 2 hours. […] The highest histone acetylation appeared at 6 hours after the compound had been removed. […] Because NBM-HD-1 is more hydrophobic than sodium butyrate, NBM-HD-1 can be retained in the cells longer than sodium butyrate and continuously induce the acetylation of histone H4."}, "[3]": {"tested_on": "human giloblastoma DBTRG-05MG cancer cells", "assay": "Growth and morphology of human giloblastoma DBTRG-05MG cancer cells", "format": "cell-based", "conditions": "NBM-HD-1 2.5, 5, 10 μg/mL or 4 mM sodium butyrate, 72 hours", "method": "The human giloblastoma DBTRG-05MG cancer cells were cultured in RPMI medium 1640 (Gibco) supplemented with penicillin G, streptomycin sulphate, 0.5 mM of L-glutamine and 10% fetal bovine serum (FBS; Gibco), 100 mh/L sodium pyruvate (Gibco), and 1% NEAA (Gibco) at 37° C., 5% CO2 and 95% relative humidity. For these experiments, the cells were seeded at a density of 3×10^5 per well of 6-well plates. After 24 hours, the cells were treated with different concentrations of NBM-HD-1 and 4 mM sodium butyrate. The cells were observed and counted after 72 hours. […] In 05MG cells (FIG. 7(A)), after incubation with 2.5 μg/mL (FIG. 7(A)-b), 5 μg/mL (FIG. 7(A)-c) and 10 μg/mL (FIG. 7(A)-d) of NBM-HD-1 for 72 hours, the density of the cells reduced dramatically in comparison with that of the control group (FIG. 7(A)-a). The 05MG cells in the experimental group also changed to become longer than those in the control group."}, "[4]": {"conditions": "compound 2.5, 5, 7.5, 10 μg/mL or 4 mM sodium butyrate, 72 hours"}}, "data": [{"smiles": "CN(C)c1ccc(C(=O)NCCCCCCC(=O)NO)cc1", "note": "[M344]", "values": [{"measurement": "up-regulation of SMN2 protein expression", "setting": "SMN2 protein", "result": "up to 7 fold"}]}, {"smiles": "COc1cc2c(c(O)c1CCC(C)(C)O)C(=O)C[C@@H](c1ccc(OC)c(OC)c1C/C=C(\\C)CCCC(C)(C)O)O2", "note": "[NBM-HD-3]", "values": [{"measurement": "morphology of MCF-7 cancer cells", "setting": "[1]; 2.5, 5, 7.5, 10 μg/mL, 72 hours", "result": "change their morphology"}, {"measurement": "growth of MCF-7 cancer cells", "setting": "[1]; [4]", "result": "can inhibit the growth of MCF-7 cancer cells in a dose-dependent manner"}]}, {"smiles": "CC(/C=C/C(=O)NO)=C\\[C@@H](C)C(=O)c1ccc(N(C)C)cc1", "note": "[Trichostatin A]", "values": [{"measurement": "cyclin D1 degradation", "setting": "cyclin D1", "result": "induce ubiquitin-dependent cyclin D1 degradation"}]}, {"smiles": "CCCC(=O)[O-].[Na+]", "note": "[sodium butyrate, reference compound]", "values": [{"measurement": "growth of MCF-7 cancer cells", "setting": "[1]; NBM-HD-1 2.5, 5, 10 μg/mL or 4 mM sodium butyrate, observed after 48 hours, counted after 96 hours", "result": "able to inhibit the growth of MCF-7 cells"}, {"measurement": "growth of MCF-7 cancer cells", "setting": "[1]; [4]", "result": "able to inhibit the growth of MCF-7 cells"}, {"measurement": "phenotypic expression", "setting": "[2]", "result": "ameliorates phenotypic expression"}, {"measurement": "accumulation of hyperacetylated histone H4", "setting": "acetylated histone H4; 10 μg/mL NBM-HD-1 or 4 mM sodium butyrate, 2 hours", "result": "can increase the accumulation of hyperacetylated histone H4"}, {"measurement": "amount of acetylated histone H4 after removal of the compound", "setting": "acetylated histone H4; after 2 hours treatment and removal from the culture medium, up to 6 hours", "result": "decreased"}, {"measurement": "growth of 05MG cancer cells", "setting": "[3]", "result": "could inhibit the proliferation of 05MG cancer cells"}]}]}
